Laboratory results taken from patent US20240262844A1, “PYRIDINIUM SALTS AND METHODS OF USE” (UNIVERSITY OF WYOMING, priority 2023, published 2024).
Where a name gives a salt, the structure may show the parent alone.

Tests used:
Leuprolide (1.2 kDa) = test: Photochemical labeling of leuprolide (LC/MS); assay type: biochemical; conditions: 10 μM leuprolide, 100 μM pyridinium salt, 300 μM glutathione, 20 mM NH4OAc pH 6.9, 427 nm, 30 minutes
Experimental: General Procedure B: Photochemical Irradiation of Peptides and Proteins: To a 2 mL Pyrex LC/MS vial (Thermo model #03-391-39) were sequentially added solutions containing the desired biomolecule, glutathione (GSH), pyridinium salt, and ammonium acetate (NH4OAc). The resulting solution was diluted to a final volume of 500 μL and then sparged using nitrogen for a minimum of 30 minutes prior to irradiation. The actively sparging solution was then placed in an EvoluChem™ PhotoRedOx Box photoreactor that was equipped with a Kessil, PR160 427 nm LED Lamp and was then irradiated (100% lamp intensity) for the designated time at room temperature while maintaining active sparging. The resultant reaction mixture was then analyzed directly by LC/MS. Analysis of labeling outcomes using LC/MS was performed either by extracted ion chromatogram intensities (method A) or by integrating the area under the peaks associated with peptide content (method B). These values were totaled, and estimated percentages were assigned according to relative intensities of peaks or ion counts.
Labeling of Leuprolide with Pyridinium Salt 2a (Leuprolide-2a Conjugate). […] The reaction mixture was analyzed directly by LC/MS using method B and was estimated to have proceeded with 91% conversion, a >20:1 mono:di labeled ratio, and 4% of +1 label+glutathionylation. […]

PARP1 = target: T1, PARP1 (Homo sapiens, UniProt P09874); test: In-situ labeling and enrichment of PARP1 in HEK293T cells (MS-MS, Western); assay type: cell-based
T1 construct: endogenous in cells; host or cells: HEK293T
T1 sequence (P09874 whole entry): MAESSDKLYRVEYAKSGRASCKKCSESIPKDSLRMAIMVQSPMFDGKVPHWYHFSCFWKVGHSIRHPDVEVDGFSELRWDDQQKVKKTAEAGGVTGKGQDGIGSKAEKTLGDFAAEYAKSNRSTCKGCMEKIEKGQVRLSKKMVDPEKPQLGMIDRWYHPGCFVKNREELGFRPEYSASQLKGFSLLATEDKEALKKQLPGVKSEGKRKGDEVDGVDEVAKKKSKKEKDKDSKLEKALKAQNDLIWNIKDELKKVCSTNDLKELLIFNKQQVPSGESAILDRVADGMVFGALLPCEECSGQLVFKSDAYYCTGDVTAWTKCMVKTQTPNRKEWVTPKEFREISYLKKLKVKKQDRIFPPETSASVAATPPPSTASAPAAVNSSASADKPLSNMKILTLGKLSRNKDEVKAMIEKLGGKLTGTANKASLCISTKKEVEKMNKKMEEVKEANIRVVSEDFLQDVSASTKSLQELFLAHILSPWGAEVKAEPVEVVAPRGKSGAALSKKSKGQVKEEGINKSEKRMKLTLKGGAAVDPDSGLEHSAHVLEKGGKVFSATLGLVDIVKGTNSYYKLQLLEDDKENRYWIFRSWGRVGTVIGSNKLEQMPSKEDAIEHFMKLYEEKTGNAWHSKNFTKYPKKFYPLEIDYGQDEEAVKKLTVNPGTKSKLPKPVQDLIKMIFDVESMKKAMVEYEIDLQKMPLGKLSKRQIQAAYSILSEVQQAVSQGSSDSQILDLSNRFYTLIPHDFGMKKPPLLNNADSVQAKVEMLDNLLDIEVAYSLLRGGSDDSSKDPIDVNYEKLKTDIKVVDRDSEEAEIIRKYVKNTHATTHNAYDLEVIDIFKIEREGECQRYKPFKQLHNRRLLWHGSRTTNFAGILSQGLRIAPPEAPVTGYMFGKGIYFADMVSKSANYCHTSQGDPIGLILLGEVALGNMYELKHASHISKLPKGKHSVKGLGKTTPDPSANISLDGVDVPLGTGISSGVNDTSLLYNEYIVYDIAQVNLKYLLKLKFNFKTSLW
Experimental: Cell culture and in-situ tryptophan probe treatment: Cell lines were cultured at 37° C. with 5% C02. Human embryonic kidney 293 cells expressing a mutant version of the SV40 large T antigen (HEKT293T cells) were grown in Dulbecco's Modified Eagle Medium (DMEM, Gibco) supplemented with 10% fetal bovine serum and 1% penicillin/streptomycin. For in-situ labeling, cells were grown to 90% confluence, washed with Dulbecco's phosphate buffered saline (DPBS), treated with 100x stocks of the tryptophan probes (the pyridinium salts) in OptiMem (GibCo) to generate final concentrations (0 μM, 1 μM, 10 μM, and 100 μM) in 1% dimethylsulfoxide (DMSO). Cells were incubated for 1 hour at 37° C. with 5% C02 followed by photo-activation at the respective wavelengths for 20 minutes at 4° C. Cells were harvested with a cell scraper, washed 3× with DPBS, and pellets were stored at −80° C. until further use. […]
In-situ tryptophan probe sample processing for peptide-level characterization: Cell pellets were lysed via sonication (QSonica) at 50% amplitude, 2 seconds ON, 3 seconds OFF, 30 seconds in 40 mM HEPES pH 7.5 (4-(2-hydroxyethyl)-1-piperazineethanesulfonic acid), 1.5 mM magnesium chloride (MgCl2), 1% Sodium dodecyl sulfate (SDS), 0.8% NP-40 (also known as nonyl phenoxypolyethoxylethanol), and 1x protease inhibitors (Thermo). Protein concentration was determined by BCA (Pierce). […]

modified and dose-dependently enriched tryptophan residues (PARP1; chemoproteomic profiling, HEK293T cells) | PARP1 in enriched protein mixture (Western analysis) (PARP1; cultures irradiated with blue light in the presence of probe, protein-level enrichment) | SMILES | conversion (Leuprolide (1.2 kDa)) [%]
– | – | COC(=O)N(C)[n+]1c(C)cc(-c2ccc3cc(OC)ccc3c2)cc1C [Pyridinium salt 2a, 1-((methoxycarbonyl)(methyl)amino)-4-(6-methoxynapthalen-2-yl)-2,6-dimethylpyridin-1-ium tetrafluoroborate] | 91
Trp79 and Trp318 | found to contain both proteins | COc1ccc2cc(-c3cc(C)[n+](N(C)C(=O)OCCCCCCN=[N+]=[N-])c(C)c3)ccc2c1 [Pyridinium salt 2d, 1-((((6-azidohexyl)oxy)carbonyl)(methyl)amino)-4-(6-methoxynaphthalen-2-yl)-2,6-dimethylpyridin-1-ium tetrafluoroborate] | –
